Here are results for 14 compounds from ChEMBL document CHEMBL3991601, “The target landscape of clinical kinase drugs” (Science, 2017).

By Kd is commonly meant the equilibrium constant for the complex coming apart.

Counter-ions that a name gives are not always drawn. Activity calls are given as the source filed them. Cut-off read from the data, not from the text of the source, for most assays here: actives have a measured Kd and inactives only a lower limit. Some results are limits rather than exact numbers.

The target in assay [1] is Myosin-10 (Homo sapiens, UniProt P35580).
Sequence of Myosin-10 (P35580 whole entry): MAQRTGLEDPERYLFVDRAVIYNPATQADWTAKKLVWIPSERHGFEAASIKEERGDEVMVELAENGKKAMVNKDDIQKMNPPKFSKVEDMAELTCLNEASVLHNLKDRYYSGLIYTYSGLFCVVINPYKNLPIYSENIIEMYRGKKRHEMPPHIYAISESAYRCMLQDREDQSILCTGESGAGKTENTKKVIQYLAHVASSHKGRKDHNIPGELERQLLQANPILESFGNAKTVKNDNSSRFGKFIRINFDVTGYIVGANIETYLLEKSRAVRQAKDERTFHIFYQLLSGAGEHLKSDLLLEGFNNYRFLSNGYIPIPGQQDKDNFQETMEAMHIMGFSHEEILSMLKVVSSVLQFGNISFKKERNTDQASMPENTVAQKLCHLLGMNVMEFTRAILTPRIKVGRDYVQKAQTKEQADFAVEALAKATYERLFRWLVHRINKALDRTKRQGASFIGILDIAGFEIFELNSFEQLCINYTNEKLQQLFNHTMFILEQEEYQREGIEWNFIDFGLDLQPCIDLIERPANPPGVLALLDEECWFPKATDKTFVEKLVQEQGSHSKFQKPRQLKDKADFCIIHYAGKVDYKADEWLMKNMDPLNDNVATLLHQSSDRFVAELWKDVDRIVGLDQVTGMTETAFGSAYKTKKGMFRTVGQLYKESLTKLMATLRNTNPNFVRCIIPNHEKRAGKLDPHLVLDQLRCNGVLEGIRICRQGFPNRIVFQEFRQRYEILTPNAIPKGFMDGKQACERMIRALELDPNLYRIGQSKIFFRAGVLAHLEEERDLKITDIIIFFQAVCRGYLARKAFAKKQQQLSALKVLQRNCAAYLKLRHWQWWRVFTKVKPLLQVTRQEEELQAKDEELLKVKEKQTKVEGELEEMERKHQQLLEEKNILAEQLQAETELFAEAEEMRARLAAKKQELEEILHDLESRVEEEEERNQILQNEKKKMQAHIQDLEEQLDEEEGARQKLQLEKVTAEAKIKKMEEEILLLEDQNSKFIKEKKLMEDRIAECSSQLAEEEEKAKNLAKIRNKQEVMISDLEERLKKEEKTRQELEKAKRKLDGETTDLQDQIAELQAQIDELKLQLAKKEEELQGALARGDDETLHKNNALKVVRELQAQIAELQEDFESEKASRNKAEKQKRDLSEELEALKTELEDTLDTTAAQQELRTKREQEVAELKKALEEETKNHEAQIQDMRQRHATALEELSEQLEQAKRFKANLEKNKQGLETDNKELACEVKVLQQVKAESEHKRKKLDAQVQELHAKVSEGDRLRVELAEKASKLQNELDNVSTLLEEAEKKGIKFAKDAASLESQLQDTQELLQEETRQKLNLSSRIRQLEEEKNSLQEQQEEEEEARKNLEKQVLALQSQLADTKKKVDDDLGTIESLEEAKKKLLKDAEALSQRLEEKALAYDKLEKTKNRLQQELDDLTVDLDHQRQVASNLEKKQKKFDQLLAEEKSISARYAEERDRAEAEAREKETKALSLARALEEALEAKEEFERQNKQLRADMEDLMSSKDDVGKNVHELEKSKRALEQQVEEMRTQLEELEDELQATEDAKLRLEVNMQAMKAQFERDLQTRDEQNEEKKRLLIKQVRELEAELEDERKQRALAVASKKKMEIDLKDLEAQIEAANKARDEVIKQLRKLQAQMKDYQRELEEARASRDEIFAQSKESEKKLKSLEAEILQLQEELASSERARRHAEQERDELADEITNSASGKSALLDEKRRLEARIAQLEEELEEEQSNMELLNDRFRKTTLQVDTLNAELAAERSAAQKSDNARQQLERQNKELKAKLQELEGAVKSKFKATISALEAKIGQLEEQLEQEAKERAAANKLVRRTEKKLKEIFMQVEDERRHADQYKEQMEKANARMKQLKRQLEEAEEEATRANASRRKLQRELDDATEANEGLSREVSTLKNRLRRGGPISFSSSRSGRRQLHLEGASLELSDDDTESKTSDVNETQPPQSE
Assay [2] has as its target cAMP-dependent protein kinase catalytic subunit alpha (Homo sapiens, UniProt P17612).
Assay [3] has as its target Mitogen-activated protein kinase kinase kinase 4 (Homo sapiens, UniProt Q9Y6R4).
Assay [4] deals with Protein-tyrosine kinase 6 (Homo sapiens, UniProt Q13882).
Sequence of Protein-tyrosine kinase 6 (Q13882 whole entry): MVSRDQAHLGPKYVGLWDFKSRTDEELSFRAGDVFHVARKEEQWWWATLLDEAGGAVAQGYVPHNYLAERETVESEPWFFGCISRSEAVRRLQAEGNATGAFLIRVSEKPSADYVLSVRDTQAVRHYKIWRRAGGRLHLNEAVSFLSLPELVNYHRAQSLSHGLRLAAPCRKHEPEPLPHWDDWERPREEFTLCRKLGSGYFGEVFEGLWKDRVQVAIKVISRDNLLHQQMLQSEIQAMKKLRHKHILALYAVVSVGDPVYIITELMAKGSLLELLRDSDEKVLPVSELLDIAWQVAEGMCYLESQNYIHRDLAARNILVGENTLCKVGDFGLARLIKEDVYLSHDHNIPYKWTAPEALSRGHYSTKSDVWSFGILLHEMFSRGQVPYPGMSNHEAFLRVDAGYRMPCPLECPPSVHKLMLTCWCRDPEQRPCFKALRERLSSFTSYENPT
Assay [5] deals with T1, Serine/threonine-protein kinase D2 (Homo sapiens, UniProt Q9BZL6).
T1 sequence (Q9BZL6 whole entry): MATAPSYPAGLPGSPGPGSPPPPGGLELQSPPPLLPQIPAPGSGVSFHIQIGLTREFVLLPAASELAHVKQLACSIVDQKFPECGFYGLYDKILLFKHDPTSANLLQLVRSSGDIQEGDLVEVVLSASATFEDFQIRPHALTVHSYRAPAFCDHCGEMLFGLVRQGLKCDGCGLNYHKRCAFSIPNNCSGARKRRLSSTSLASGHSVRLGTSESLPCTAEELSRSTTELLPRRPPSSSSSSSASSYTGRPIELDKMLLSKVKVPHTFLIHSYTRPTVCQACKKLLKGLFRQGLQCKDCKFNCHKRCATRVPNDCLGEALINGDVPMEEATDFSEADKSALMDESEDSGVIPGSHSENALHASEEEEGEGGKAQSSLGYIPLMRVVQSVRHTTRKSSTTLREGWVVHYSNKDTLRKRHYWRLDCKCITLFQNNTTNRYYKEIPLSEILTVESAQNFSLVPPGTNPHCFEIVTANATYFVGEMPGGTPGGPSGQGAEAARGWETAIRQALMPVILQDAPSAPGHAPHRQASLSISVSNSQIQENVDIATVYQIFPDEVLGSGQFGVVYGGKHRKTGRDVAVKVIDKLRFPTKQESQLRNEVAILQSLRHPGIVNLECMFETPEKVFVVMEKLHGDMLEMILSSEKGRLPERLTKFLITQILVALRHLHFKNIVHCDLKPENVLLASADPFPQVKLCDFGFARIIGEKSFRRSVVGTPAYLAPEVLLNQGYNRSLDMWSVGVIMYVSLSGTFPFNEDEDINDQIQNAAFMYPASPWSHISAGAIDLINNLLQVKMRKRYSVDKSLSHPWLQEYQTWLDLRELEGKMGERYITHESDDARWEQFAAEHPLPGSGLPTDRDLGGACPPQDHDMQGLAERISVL

The target in assay [6] is T2, Ephrin type-B receptor 4 (Homo sapiens, UniProt P54760).
T2 sequence (P54760 whole entry): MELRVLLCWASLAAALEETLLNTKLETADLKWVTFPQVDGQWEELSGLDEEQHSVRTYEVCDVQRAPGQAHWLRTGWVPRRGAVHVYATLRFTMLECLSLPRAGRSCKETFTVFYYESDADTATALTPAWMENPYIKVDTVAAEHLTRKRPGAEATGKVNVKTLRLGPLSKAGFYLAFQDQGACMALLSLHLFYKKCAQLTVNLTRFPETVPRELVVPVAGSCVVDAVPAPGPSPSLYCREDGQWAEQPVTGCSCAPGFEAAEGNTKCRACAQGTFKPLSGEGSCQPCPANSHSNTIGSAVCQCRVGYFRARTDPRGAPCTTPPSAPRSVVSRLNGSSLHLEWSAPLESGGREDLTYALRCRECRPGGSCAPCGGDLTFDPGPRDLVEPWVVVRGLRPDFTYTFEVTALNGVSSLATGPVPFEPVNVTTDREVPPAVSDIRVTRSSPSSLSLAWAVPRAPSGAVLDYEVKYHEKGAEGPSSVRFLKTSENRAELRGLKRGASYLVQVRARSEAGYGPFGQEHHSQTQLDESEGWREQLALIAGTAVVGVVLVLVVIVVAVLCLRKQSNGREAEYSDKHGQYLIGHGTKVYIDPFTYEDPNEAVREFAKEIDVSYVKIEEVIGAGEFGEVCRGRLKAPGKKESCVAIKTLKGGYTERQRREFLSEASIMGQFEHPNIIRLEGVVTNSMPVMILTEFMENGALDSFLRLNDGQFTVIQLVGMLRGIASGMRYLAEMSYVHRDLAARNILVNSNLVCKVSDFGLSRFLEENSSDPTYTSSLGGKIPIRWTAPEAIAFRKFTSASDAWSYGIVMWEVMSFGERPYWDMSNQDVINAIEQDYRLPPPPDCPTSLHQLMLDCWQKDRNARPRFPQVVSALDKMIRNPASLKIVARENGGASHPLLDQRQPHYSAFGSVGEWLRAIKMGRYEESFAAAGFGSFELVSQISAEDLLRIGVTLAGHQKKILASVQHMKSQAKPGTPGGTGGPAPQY

The target in assay [7] is Dual specificity mitogen-activated protein kinase kinase 2 (Homo sapiens, UniProt P36507).
Sequence of Dual specificity mitogen-activated protein kinase kinase 2 (P36507 whole entry): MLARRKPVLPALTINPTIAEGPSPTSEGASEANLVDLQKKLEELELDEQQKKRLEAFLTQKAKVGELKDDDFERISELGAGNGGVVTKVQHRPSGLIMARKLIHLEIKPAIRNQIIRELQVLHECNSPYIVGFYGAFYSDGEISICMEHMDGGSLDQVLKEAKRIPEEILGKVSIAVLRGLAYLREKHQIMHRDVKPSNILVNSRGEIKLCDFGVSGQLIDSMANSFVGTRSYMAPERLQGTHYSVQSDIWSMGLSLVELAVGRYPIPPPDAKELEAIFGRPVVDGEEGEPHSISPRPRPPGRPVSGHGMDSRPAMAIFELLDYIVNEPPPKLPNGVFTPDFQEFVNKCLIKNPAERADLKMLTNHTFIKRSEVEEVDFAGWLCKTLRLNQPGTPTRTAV
The target of assay [8] is T3, Serine/threonine-protein kinase 4 (Homo sapiens, UniProt Q13043).
T3 sequence (Q13043 whole entry): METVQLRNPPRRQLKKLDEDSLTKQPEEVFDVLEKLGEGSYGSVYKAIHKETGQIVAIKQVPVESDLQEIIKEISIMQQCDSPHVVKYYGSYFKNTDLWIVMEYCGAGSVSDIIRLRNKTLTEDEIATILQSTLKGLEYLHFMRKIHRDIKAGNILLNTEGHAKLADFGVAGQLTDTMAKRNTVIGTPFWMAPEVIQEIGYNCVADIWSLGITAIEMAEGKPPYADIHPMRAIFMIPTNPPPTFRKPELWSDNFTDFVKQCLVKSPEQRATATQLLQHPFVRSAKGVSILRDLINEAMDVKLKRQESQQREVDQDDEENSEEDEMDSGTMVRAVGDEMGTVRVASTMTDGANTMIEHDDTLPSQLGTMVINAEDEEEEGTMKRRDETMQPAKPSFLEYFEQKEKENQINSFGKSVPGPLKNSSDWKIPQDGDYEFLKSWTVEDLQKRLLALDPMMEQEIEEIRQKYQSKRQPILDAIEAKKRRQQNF

Assay [9] concerns the target Cyclin-dependent kinase 2 (Homo sapiens, UniProt P24941).
Note: in the data inactive means no Kd found up to 30 µM.

Sequence of Mitogen-activated protein kinase kinase kinase 4 (Q9Y6R4 whole entry): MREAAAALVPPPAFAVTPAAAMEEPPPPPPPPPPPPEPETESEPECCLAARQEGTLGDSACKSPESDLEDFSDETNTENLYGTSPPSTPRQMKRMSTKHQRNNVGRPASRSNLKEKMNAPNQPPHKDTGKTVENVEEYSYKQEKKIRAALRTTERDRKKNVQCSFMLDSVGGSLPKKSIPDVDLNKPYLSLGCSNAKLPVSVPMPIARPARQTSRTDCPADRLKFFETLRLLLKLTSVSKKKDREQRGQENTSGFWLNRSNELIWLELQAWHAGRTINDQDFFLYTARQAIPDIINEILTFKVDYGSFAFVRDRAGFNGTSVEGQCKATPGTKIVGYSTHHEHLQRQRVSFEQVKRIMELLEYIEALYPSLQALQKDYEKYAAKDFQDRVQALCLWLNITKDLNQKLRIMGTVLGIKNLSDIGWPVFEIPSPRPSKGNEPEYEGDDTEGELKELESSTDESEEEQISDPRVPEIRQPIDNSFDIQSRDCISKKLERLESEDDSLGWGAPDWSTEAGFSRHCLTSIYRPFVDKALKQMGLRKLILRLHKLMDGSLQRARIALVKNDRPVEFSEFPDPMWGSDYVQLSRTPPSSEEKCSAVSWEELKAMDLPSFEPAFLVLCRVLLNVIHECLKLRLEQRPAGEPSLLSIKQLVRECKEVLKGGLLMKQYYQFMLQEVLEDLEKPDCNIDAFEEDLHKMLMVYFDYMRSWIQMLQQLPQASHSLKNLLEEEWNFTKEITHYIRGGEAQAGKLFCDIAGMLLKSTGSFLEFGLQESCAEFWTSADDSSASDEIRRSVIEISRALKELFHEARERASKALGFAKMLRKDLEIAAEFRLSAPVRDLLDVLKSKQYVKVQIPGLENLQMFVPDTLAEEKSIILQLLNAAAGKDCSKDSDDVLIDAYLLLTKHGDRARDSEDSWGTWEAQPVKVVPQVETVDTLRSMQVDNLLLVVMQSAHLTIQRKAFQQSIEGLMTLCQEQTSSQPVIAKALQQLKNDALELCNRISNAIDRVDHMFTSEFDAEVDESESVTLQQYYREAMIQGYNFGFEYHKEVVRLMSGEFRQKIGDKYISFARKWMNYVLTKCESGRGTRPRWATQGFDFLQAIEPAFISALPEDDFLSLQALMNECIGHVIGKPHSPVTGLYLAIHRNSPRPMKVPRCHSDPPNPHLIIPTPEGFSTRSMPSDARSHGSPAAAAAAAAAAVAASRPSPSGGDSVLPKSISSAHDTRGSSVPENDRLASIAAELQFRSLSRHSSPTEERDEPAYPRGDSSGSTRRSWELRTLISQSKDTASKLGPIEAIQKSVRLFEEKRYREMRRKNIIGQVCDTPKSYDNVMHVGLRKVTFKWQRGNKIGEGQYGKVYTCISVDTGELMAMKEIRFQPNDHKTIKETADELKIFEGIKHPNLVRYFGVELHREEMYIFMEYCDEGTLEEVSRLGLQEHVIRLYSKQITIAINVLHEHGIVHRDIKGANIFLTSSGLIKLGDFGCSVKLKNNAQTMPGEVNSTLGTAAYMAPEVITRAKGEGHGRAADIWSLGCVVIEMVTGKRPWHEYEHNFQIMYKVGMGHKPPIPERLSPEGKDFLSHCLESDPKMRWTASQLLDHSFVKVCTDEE

In the case of `C=CC(=O)N1CCC[C@H](n2c(=O)n(-c3ccc(Oc4ccccc4)cc3)c3c(N)ncnc32)C1`, the Kd in assay [1] is > 30 µM (inactive); in assay [2] it was > 30 µM (inactive); in [3], > 30 µM (inactive); in assay [4] it was 0.025 µM; in assay [5] it was > 30 µM (inactive); in assay [6], > 30 µM (inactive). Also, the Kd in assay [7], in assay [8] and in [9] was > 30 µM (inactive) throughout.

As for `COCc1c(-c2ccc(NC(=O)Nc3cc(C(F)(F)F)ccc3F)c(F)c2)c2c(N)ncnn2c1CN1CCOCC1`, the Kd in assay [1], in assay [2], in assay [3], in [4], in assay [5] and in [6] was > 30 µM (inactive) throughout. For the same compound, the Kd in assay [7], in assay [8] and in assay [9] was > 30 µM (inactive) throughout.

In the case of `Cc1cc(C(=O)NOCCO)c(Nc2ccc(I)cc2F)n(C)c1=O` [AZD-8330], the Kd in assay [1], in assay [2], in [3], in assay [4], in assay [5] and in assay [6] was > 30 µM (inactive) each time. For the same compound, the Kd in assay [8] and in assay [9] was > 30 µM (inactive) each time.

Regarding `CCS(=O)(=O)N1CCN(c2ccc(Nc3ncc(C(N)=O)c(NC4CC4)n3)cc2)CC1` [Cerdulatinib Hydrochloride], the Kd in assay [1] is > 30 µM (inactive); in assay [2], > 30 µM (inactive); in assay [3], > 30 µM (inactive); in [4] it was > 30 µM (inactive); in assay [5], 1.21 µM (active); in assay [6], > 30 µM (inactive). The Kd was > 30 µM (inactive) in assay [7] and 0.102 µM (active) in assay [8].

In the case of `CC(C)(C)c1nc(-c2cccc(NS(=O)(=O)c3c(F)cccc3F)c2F)c(-c2ccnc(N)n2)s1` [DABRAFENIB], the Kd in assay [1] was > 30 µM (inactive); in assay [3], > 30 µM (inactive); in [4] it was 1.41 µM (active); in assay [5] it was 0.034 µM (active); in assay [8] it was > 30 µM (inactive); in assay [9], 0.019 µM (active).

For the compound `CCn1cc(-c2ccnc3[nH]c(-c4cccc(CN(C)C)c4)cc23)c(-c2ccc(NC(=O)N(C)C)cc2)n1` [GSK-1070916], the Kd in assay [1] was > 30 µM (inactive); in [2] it was > 30 µM (inactive); in assay [3], 1.43 µM (active); in assay [4], 8.19 µM (active); in [6], > 30 µM (inactive); in [7] it was > 30 µM (inactive). Besides, the Kd in assay [8] and in [9] was > 30 µM (inactive) in each case.

For the compound `O=C(Nc1cc(C(F)(F)F)cc(C(F)(F)F)c1)c1cc(Cl)ccc1O` [IMD-0354], the Kd in assay [1], in [2], in [3], in assay [4], in assay [6] and in assay [7] was > 30 µM (inactive) throughout. In addition, the Kd in assay [8] and in assay [9] was > 30 µM (inactive) each time.

With `CNC(=O)c1cccc2cc(Oc3ccnc4cc(OCC5(N)CC5)c(OC)cc34)ccc12` [LUCITANIB], the Kd in assay [1], in assay [2], in assay [3], in assay [4], in assay [5] and in [6] was > 30 µM (inactive) each time. The Kd in [7] and in [8] was > 30 µM (inactive) in each case.

With `CCOc1cc2ncc(C#N)c(Nc3ccc(F)c(Cl)c3)c2cc1NC(=O)/C=C/CN(C)C` [PELITINIB], the Kd in assay [1], in assay [2], in assay [4], in [5], in assay [6] and in assay [9] was > 30 µM (inactive) each time.

For the compound `CNC(=O)c1cc(Oc2ccc(NC(=O)Nc3cc(C(C)(C)C)nn3-c3ccc4ncccc4c3)c(F)c2)ccn1` [REBASTINIB], the Kd in [1], in assay [2], in [3], in assay [5], in assay [6] and in assay [7] was > 30 µM (inactive) throughout. Besides, the Kd in [9] is 0.199 µM (active).

As for `CCS(=O)(=O)c1cccc(-c2cc(C(=O)NC3CCN(C)CC3)c(C)c3[nH]c4ncc(C)cc4c23)c1` [TAK-901], the Kd is > 30 µM (inactive) in [1]; > 30 µM (inactive) in [2]; > 30 µM (inactive) in [3]; 0.18 µM (active) in assay [4]; > 30 µM (inactive) in [5]; 0.656 µM (active) in assay [6]. For the same compound, the Kd in [7] was 3.95 µM (active).

As to `Cn1ncc(Cl)c1-c1cc(C(=O)N[C@H](CN)Cc2ccc(F)c(F)c2)oc1Cl` [UPROSERTIB], the Kd in assay [1] is > 30 µM (inactive); in [2] it was 0.01 µM (active); in [3], > 30 µM (inactive); in assay [4], > 30 µM (inactive); in assay [6], > 30 µM (inactive); in assay [7], > 30 µM (inactive). For the same compound, the Kd in [8] and in assay [9] was > 30 µM (inactive) in each case.

Regarding `C[C@@H](N)c1ccc(C(=O)Nc2ccnc3[nH]ccc23)cc1` [Y-39983], the Kd in assay [1] is > 30 µM (inactive); in [2], 23.2 µM (active); in assay [3] it was > 30 µM (inactive); in assay [4], > 30 µM (inactive); in [5], 0.572 µM (active); in assay [6], > 30 µM (inactive). Further, the Kd in [7] and in assay [8] was > 30 µM (inactive) in each case.

`CN1C/C=C/CCOc2cccc(c2)-c2ccnc(n2)Nc2cccc(c2)C1` [ZOTIRACICLIB]: the Kd in [1] is > 30 µM (inactive); in assay [2], > 30 µM (inactive); in assay [3] it was > 30 µM (inactive); in [4], > 30 µM (inactive); in [5], 0.474 µM (active); in assay [6], > 30 µM (inactive). The Kd in assay [7] is > 30 µM (inactive); in [8], 1.8 µM (active).
